Assay results published in the NIST ThermoML archive (doi:10.1021/je500381c).

How the values were obtained:
[1] = refractive index (Na D-line) (dimensionless); xn = mol fraction of the nth substance listed; conditions: 100 kPa, Liquid, Standard Abbe refractometry
[2] = xn = mol fraction of the nth substance listed; conditions: for mass density / viscosity: 100 kPa, Liquid; for mass density: Vibrating tube method; for surface tension liquid-gas: Drop volume
[3] = refractive index (Na D-line) (dimensionless); conditions: 101.33 kPa, Liquid, Standard Abbe refractometry
[4] = for viscosity / mass density: 100 kPa, Liquid; for mass density: Vibrating tube method; for surface tension liquid-gas: Drop volume

OCC1CCCCC1 [cyclohexylmethanol] + CCC12CC3CC(CC(C3)C1)C2
x1 = 1
Conditions | mass density, [2] [kg/m3] | refractive index, [1] | surface tension liquid-gas, [2] [mN/m] | viscosity, [2] [mPa·s]
293.15 K | 929.76 | 1.4629 | – | 37.75
298.15 K | 926.25 | 1.4612 | 32.43 | 28.67
303.15 K | 922.71 | 1.4592 | – | 22.34
308.15 K | 919.14 | – | – | 17.57
313.15 K | 915.53 | 1.455 | – | 14.09
318.15 K | 911.88 | – | – | 11.43
323.15 K | 908.19 | 1.4507 | – | 9.354
328.15 K | 904.45 | – | – | 7.766
333.15 K | 900.67 | 1.4463 | – | 6.462

CC12CC3CC(C)(C1)CC(C)(C3)C2 [1,3,5-trimethyladamantane]
Conditions | mass density, [4] [kg/m3] | refractive index, [3] | surface tension liquid-gas, [4] [mN/m] | viscosity, [4] [mPa·s]
293.15 K | 887.48 | 1.4736 | – | 2.601
298.15 K | 883.99 | 1.4715 | 26.17 | 2.338
303.15 K | 880.47 | 1.4695 | – | 2.118
308.15 K | 876.94 | – | – | 1.93
313.15 K | 873.4 | 1.4649 | – | 1.765
318.15 K | 869.86 | – | – | 1.621
323.15 K | 866.31 | 1.4612 | – | 1.494
328.15 K | 862.76 | – | – | 1.384
333.15 K | 859.2 | 1.4568 | – | 1.284

CC12CC3CC(C1)CC(C)(C3)C2 [1,3-dimethyladamantane] + OCC1CCCCC1
x2 = 0
Conditions | mass density, [2] [kg/m3] | refractive index, [1] | surface tension liquid-gas, [2] [mN/m] | viscosity, [2] [mPa·s]
293.15 K | 901.58 | 1.4776 | – | 3.764
298.15 K | 898.04 | 1.4757 | 27.88 | 3.345
303.15 K | 894.48 | 1.4734 | – | 3.004
308.15 K | 890.92 | – | – | 2.711
313.15 K | 887.35 | 1.4691 | – | 2.458
318.15 K | 883.77 | – | – | 2.237
323.15 K | 880.19 | 1.4651 | – | 2.045
328.15 K | 876.6 | – | – | 1.876
333.15 K | 873.01 | 1.461 | – | 1.728

OCC1CCCCC1 [cyclohexylmethanol] + CC12CC3CC(C)(C1)CC(C)(C3)C2
x1 = 1
Conditions | mass density, [2] [kg/m3] | refractive index, [1] | surface tension liquid-gas, [2] [mN/m] | viscosity, [2] [mPa·s]
293.15 K | 929.76 | 1.4629 | – | 37.75
298.15 K | 926.25 | 1.4612 | 32.43 | 28.67
303.15 K | 922.71 | 1.4592 | – | 22.34
308.15 K | 919.14 | – | – | 17.57
313.15 K | 915.53 | 1.455 | – | 14.09
318.15 K | 911.88 | – | – | 11.43
323.15 K | 908.19 | 1.4507 | – | 9.354
328.15 K | 904.45 | – | – | 7.766
333.15 K | 900.67 | 1.4463 | – | 6.462

CCC12CC3CC(CC(C3)C1)C2 [1-ethyladamantane]
Conditions | mass density, [4] [kg/m3] | refractive index, [3] | surface tension liquid-gas, [4] [mN/m] | viscosity, [4] [mPa·s]
293.15 K | 937.11 | 1.4927 | – | 6.371
298.15 K | 933.58 | 1.4906 | 29.87 | 5.565
303.15 K | 929.99 | 1.4884 | – | 4.903
308.15 K | 926.4 | – | – | 4.348
313.15 K | 922.81 | 1.4839 | – | 3.878
318.15 K | 919.21 | – | – | 3.478
323.15 K | 915.62 | 1.4802 | – | 3.134
328.15 K | 912.01 | – | – | 2.838
333.15 K | 908.41 | 1.4759 | – | 2.581

CCCCCCCO [heptan-1-ol] + CCC12CC3CC(CC(C3)C1)C2
x1 = 1
Conditions | mass density, [2] [kg/m3] | refractive index, [1] | surface tension liquid-gas, [2] [mN/m] | viscosity, [2] [mPa·s]
293.15 K | 822.28 | 1.4236 | – | 6.887
298.15 K | 818.79 | 1.422 | 26.23 | 5.812
303.15 K | 815.28 | 1.4203 | – | 4.95
308.15 K | 811.74 | – | – | 4.245
313.15 K | 808.16 | 1.4156 | – | 3.654
318.15 K | 804.56 | – | – | 3.17
323.15 K | 800.92 | 1.4115 | – | 2.768
328.15 K | 797.24 | – | – | 2.428
333.15 K | 793.52 | 1.4077 | – | 2.141
